US5527940A, “Methanediphosphonate derivative, its manufacturing process and its pharmaceutical applications” (Toray Industries, Inc., priority 1991, dated 1996)

Legend:
[1] = test system: adjuvant arthritis model; assay: Adjuvant Arthritis Test; format: in vivo, 7 week old female Lewis rats; parameters: concentration or dose not given beside the values; conditions: subcutaneous daily days 8-21; for Bone Destruction Inhibition Rate with respect to control group, Day 22: Day 22, soft X-ray score of left and right hind limbs; for Swelling Inhibition Rate with respect to Control Group, Day 21, Left / Swelling Inhibition Rate with respect to Control Group, Left (day 14 per footnote) / Swelling Inhibition Rate with respect to Control Group, Day 16, Left: left (adjuvant-injected) hind limb; for Swelling Inhibition Rate with respect to Control Group, Left (day 14 per footnote) / Swelling Inhibition Rate with respect to Control Group, Right (day 14 per footnote): day 14 (column head Day 16); for Swelling Inhibition Rate with respect to Control Group, Day 21, Right / Swelling Inhibition Rate with respect to Control Group, Right (day 14 per footnote) / Swelling Inhibition Rate with respect to Control Group, Day 16, Right: right hind limb
Procedure: Multiple arthritis resembling human chronic articular rheumatism occurs when tubercule bacillus adjuvant is injected into rats. The antiinflammatory, antirheumatic and bone metabolism improving action of compounds of the present invention were investigated according to the following procedure using this adjuvant arthritis model.
0.1 mg of dried non-viable Mycobacterium butyricum cells were suspended in 0.1 ml of liquid paraffin followed by injection into the skin of the left hind limb of 7 week old female Lewis rats. The compounds obtained in the Examples were dissolved in sterilized distilled water and administered subcutaneously every day for two weeks from the 8th to 21st days after injection of adjuvant. During that time, the volumes of the right and left hind limbs were measured and the swelling rate was calculated according to the following formula: [formula]
Moreover, the swelling inhibition rates were also determined according to the following formula, and those values are shown in Table 1. [formula]
Soft X-ray radiographs were taken of the left and right hind limbs of the animals following sacrifice on day 22. The degree of bone destruction at five locations in the left and right hind limbs was evaluated based on the soft X-ray radiographs scoring those results among 5 ranks. Moreover, the bone destruction inhibition rate was calculated using the following formula, and those values are shown in Table 1. [formula]
Those results that were significant at a level of significance of P<0.001 with respect to a control group administered only sterilized distilled water according to the Student's t-test and Chukey's multiple comparison method were indicated with three asterisks (***), those results that were significant at a level of significance of P<0.01 were indicated with two asterisks (**), and those significant at a level of significance of P<0.05 were indicated with one asterisk (*).
The swelling inhibition rates for Example 7 and Example 33 are the values for day 14 and day 21.

[2] = test system: osteoclasts (mouse bone cells), resorption pit formation; assay: Bone resorption pit formation by mouse bone cells (osteoclasts) on ivory, active type-vitamin D3 stimulation; format: cell-based, ICR mice; conditions: 10 nM active type-vitamin D3, 4 days
Excerpt: The balance between bone formation and bone destruction is disturbed during osteoporosis, with bone destruction considered to be accelerated. Bone destruction is believed to occur due to an increase in the activation and number of osteoclasts. Experiments have been conducted wherein bone resorption was induced with active type-vitanium D3 stimulation using mouse bone cells dispersed on ivory for the experimental model. The bone resorption inhibitory action of compounds of the present invention was measured using this model.
After isolating the femur and tibia from 10-15 day old ICR mice, the bone specimens were prepared into thin sections in α-MEM medium containing 5% fetal bovine serum to prepare an bone cells suspension containing marrow cells and bone matrix. Large fragments of bone were removed with nylon mesh. Viable total cells were counted with trypan blue exclusion test while osteoclasts were stained with tartaric acid-resistantacid phosphatase stain to prepare a cell suspension containing osteoclasts in a proportion of roughly 0.05-0.1%. The ivory was cut into thin sections having a thickness of 150 μm using a low-speed rotary diamond cutter. The thin sections were then punched to a size that matched the size of the wells of a 96 well plate. These ivory fragments were placed in a 96 well plate followed by addition of the cell suspension prepared above so that each well contained 500 osteoclasts. 10 nM active type-vitamin D3 was added as stimulant simultaneous to addition of the drugs of the present invention at concentrations of 10 μM and 100 μM. After culturing the cells for 4 days at 37° C. in an environment of 10% CO2, the resorption pits that formed on the ivory slices were stained with hematoxylin and counted by observing microscopically. The resorption pit formation inhibition rate was then calculated using the formula indicated below. [formula]
The results were statistically processed using the Student's t-test, and those results that were significant at a level of significance of P<0.05 with respect to an active type-vatanium D3 stimulation control group were indicated with one asterisk (*), while those results that were significant at a level of significance of P<0.01 were indicated with two asterisks (**).

[3] = test system: IL-1 production by J774-1 mouse macrophage cells; assay: Action on IL-1 Production by Strain J774-1 Mouse Macrophage Cells (LPS stimulated); format: cell-based; conditions: 100 μM compound, LPS 1 μg/ml, 24 hours, read-out: IL-1 Production Inhibition Rate with respect to Control Group
Procedure: It is also known that these cells produce IL-1 when stimulated with LPS. The inhibitory action on IL-1 production of compounds of the present invention was measured according to the following procedure using this cell line.
The J774-1 cells were cultured in RPMI-1640 medium containing 10% fetal bovine serum and 50 μM 2-mercaptoethanol followed by adjusting the number of cells to 2×10^5 cells/ml. 1 ml aliquots of this cell suspension were then placed in the wells of a 24 well plate and cultured for 30 minutes. Following culturing, LPS was added to a final concentration of 1 μg/ml. At the same time, compounds obtained in Examples were dissolved in sterilized distilled water and added at a concentration of 100 μM. […]
The samples obtained above were serially diluted by a factor of 2 in a 96 well multiplate at a capacity of 50 μl. […] The thymus cells were then cultured for 72 hours and IL-1 activity was determined from the growth rate of the cells. […] Using the absorbance of the pigment produced by this reduction at 570 nm as the index, the dilution factor of the sample when growth of thymus cells is induced by 50% was calculated in terms of the number of units of that sample by taking the case of induction of maximum growth of T cells by human gene recombinant IL-1 to be 100% growth, and growth in the case of not adding IL-1 to be 0%. […]

[4] = test system: active oxygen production by human neutrophils; assay: Release of active oxygen from fMLP-stimulated human neutrophils (CLA luminescence); format: cell-based; conditions: Neutrophil, 10 μM compound, fMLP stimulation, read-out: Active Oxygen Production Inhibition Rate
Excerpt: Neutrophils are known to function in the body defense reactions by phagocytosis of foreign bodies to remove them and production of active oxygen and digestive enzymes. However, the active oxygen and digestive enzymes produced by neutrophils also damage normal tissue during chronic inflammations and so forth. Moreover, they are also considered to exacerbate the inflammation. The action of compounds of the present invention was therefore measured with respect to the release of active oxygen from human neutrophils.
50 ml of human blood were drawn from a vein using 3.8% sodium citrate as anticoagulant. Equal volumes of this blood and a physiological saline solution containing 2% dextran were mixed and allowed to stand undisturbed for 30 minutes at 37° C. after shaking several times. The upper layer was separated and layered onto an equal volume of Ficoll-Paque solution. After centrifuging for 30 minutes at 1400 rpm and 20° C., the supernatant was removed and the cells were resuspended with Hanks buffer. […] The maximum amount of light emitted was then determined by a luminometer taking advantage of the phenomenon in which this excited carbonyl form emits light at 380 nm in the process of transition to the ground state. The active oxygen production inhibition rate was then calculated using the formula indicated below. […]

## CSc1ccc(SCCCC(O)(P(=O)(O)O)P(=O)(O)O)cc1 [Example 33, disodium 4-(4-methylthiophenyl)thio-1-hydroxy-butylidene-1,1-diphosphonate]
[1]
  Bone Destruction Inhibition Rate with respect to control group, Day 22: 77.1%
  Swelling Inhibition Rate with respect to Control Group, Day 21, Left: 138.0%
  Swelling Inhibition Rate with respect to Control Group, Left (day 14 per footnote): 115.0%
  Swelling Inhibition Rate with respect to Control Group, Day 21, Right: 66.1%
  Swelling Inhibition Rate with respect to Control Group, Right (day 14 per footnote): 63.5%

## CSc1ccc(CC(P(=O)(O)O)P(=O)(O)O)cc1 [Example 30, 2-(4-methylthiophenyl)ethane-1,1-diphosphonic acid]
[2]; 10 μM compound
  resorption pit formation Inhibition Rate with respect to Control Group: 35.6 ± 11.3%
[2]; 100 μM compound
  resorption pit formation Inhibition Rate with respect to Control Group: 87.0 ± 4.34%

## CC(C)Sc1ccc(SC(P(=O)(O)O)P(=O)(O)O)cc1 [Example 13, (4-isopropylthiophenyl)thiomethanediphosphonic Acid]
[3]
  inhibition at 100 µM: 38.6%
[2]; 10 μM compound
  resorption pit formation Inhibition Rate with respect to Control Group: 54.6 ± 10.4%
[2]; 100 μM compound
  resorption pit formation Inhibition Rate with respect to Control Group: 92.5 ± 0.61%
[1]
  Bone Destruction Inhibition Rate with respect to control group, Day 22: 62.5%
  Swelling Inhibition Rate with respect to Control Group, Day 16, Left: 76.9%
  Swelling Inhibition Rate with respect to Control Group, Day 21, Left: 91.8%
  Swelling Inhibition Rate with respect to Control Group, Day 16, Right: 16.8%
  Swelling Inhibition Rate with respect to Control Group, Day 21, Right: 28.7%

## CSc1ccccc1SC(P(=O)(O)O)P(=O)(O)O [Example 9, (2-methylthiophenyl)thiomethanediphosphonic Acid]
[2]; 10 μM compound
  resorption pit formation Inhibition Rate with respect to Control Group: 35.8 ± 27.0%
[2]; 100 μM compound
  resorption pit formation Inhibition Rate with respect to Control Group: 77.8 ± 3.59%
[4]
  inhibition at 10 µM: 46.3 ± 0.81%

## O=P(O)(O)C(Sc1ccc(Sc2ccccc2)cc1)P(=O)(O)O [Example 15, (4-phenylthiophenyl)thiomethanediphosphonic Acid]
[2]; 10 μM compound
  resorption pit formation Inhibition Rate with respect to Control Group: 30.5 ± 22.9%
[2]; 100 μM compound
  resorption pit formation Inhibition Rate with respect to Control Group: 74.1 ± 4.38%
[1]
  Bone Destruction Inhibition Rate with respect to control group, Day 22: 33.7%
  Swelling Inhibition Rate with respect to Control Group, Day 16, Left: 75.0%
  Swelling Inhibition Rate with respect to Control Group, Day 21, Left: 73.8%
  Swelling Inhibition Rate with respect to Control Group, Day 16, Right: 28.1%
  Swelling Inhibition Rate with respect to Control Group, Day 21, Right: 33.7%

## CSc1ccc(C=C(P(=O)(O)O)P(=O)(O)O)cc1 [Example 28, 2-(4-methylthiophenyl)ethynilidene-1,1-diphosphonic acid]
[2]; 10 μM compound
  resorption pit formation Inhibition Rate with respect to Control Group: -0.34 ± 10.1%
[2]; 100 μM compound
  resorption pit formation Inhibition Rate with respect to Control Group: 67.8 ± 3.98%

## CSc1cccc(SC(P(=O)(O)O)P(=O)(O)O)c1 [Example 7, (3-methylthiophenyl)thiomethanediphosphonic Acid]
[1]
  Bone Destruction Inhibition Rate with respect to control group, Day 22: 43.7%
  Swelling Inhibition Rate with respect to Control Group, Day 21, Left: 72.7%
  Swelling Inhibition Rate with respect to Control Group, Left (day 14 per footnote): 48.6%
  Swelling Inhibition Rate with respect to Control Group, Day 21, Right: 24.2%
  Swelling Inhibition Rate with respect to Control Group, Right (day 14 per footnote): 15.0%
